Results taken from patent US6645918B1, “N-([1,2,4]triazoloazinyl)thiophenesulfonamide compounds and their use as herbicides” (Dow AgroSciences LLC, priority 2000, dated 2003).

Legend:
Format in all cases: in vivo
[1] = system: chickweed (Stellaria media); assay: Postemergence herbicidal activity, chickweed; settings: foliar spray, visual after 2 weeks, 0 no injury, 100 complete kill
Experimental: (§1) Seeds of the desired test plant species were planted in Grace-Sierra MetroMix® 306 planting mixture, which typically has a pH of 6.0 to 6.8 and an organic matter content of about 30 percent, in plastic pots with a surface area of 64 square centimeters. When required to ensure good germination and healthy plants, a fungicide treatment and/or other chemical or physical treatment was applied. The plants were grown for 7-21 days in a greenhouse with an approximately 15 hr photoperiod which was maintained at about 23-29° C. during the day and 22-28° C. during the night. Nutrients and water were added on a regular basis and supplemental lighting was provided with overhead metal halide 1000 Watt lamps as necessary. The plants were employed for testing when they reached the first or second true leaf stage. A weighed amount of each test compound, determined by the highest rate to be tested, was placed in a 20 mL glass vial and was dissolved in 4 mL of a 97:3 v/v (volume/volume) mixture of acetone and dimethyl sulfoxide to obtain concentrated stock solutions. […] The concentrated stock solutions obtained were diluted with an aqueous mixture containing acetone, water, iso-propyl alcohol, dimethyl sulfoxide, Atplus 411F crop oil concentrate, and Triton X-155 surfactant (methylenebisdiamyl phenoxy polyethoxy ethanol) in a 48.5:39:10:1.5:1.0:0.02 v/v ratio to obtain spray solutions of known concentration. The solutions containing the highest concentration to be tested were prepared by diluting 2 mL aliquots of the stock solution with 13 mL of the mixture and lower concentrations were prepared by dilution of appropriate smaller portions of the stock solution. Approximately 1.5 mL aliquots of each solution of known concentration were sprayed evenly onto each of the test plant pots using a DeVilbiss atomizer driven by compressed air pressure of 2 to 4 psi (140 to 280 kilopascals) to obtain thorough coverage of each plant. Control plants were sprayed in the same manner with the aqueous mixture. In this test an application rate of 1 ppm results in the application of approximately 1 g/ha. The treated plants and control plants were placed in a greenhouse as described above and watered by sub-irrigation to prevent wash-off of the test compounds. After 2 weeks the condition of the test plants as compared with that of the untreated plants was determined visually and scored on a scale of 0 to 100 percent where 0 corresponds to no injury and 100 corresponds to complete kill.

[2] = system: cocklebur (Xanthium strumarium); assay: Postemergence herbicidal activity, cocklebur; settings: foliar spray, visual after 2 weeks, 0 no injury, 100 complete kill
Experimental: as §1

[3] = system: lambsquarters (Chenopodium album); assay: Postemergence herbicidal activity, lambsquarters; settings: foliar spray, visual after 2 weeks, 0 no injury, 100 complete kill
Experimental: as §1

[4] = system: morningglory (Ipomoea hederacea); assay: Postemergence herbicidal activity, morningglory; settings: foliar spray, visual after 2 weeks, 0 no injury, 100 complete kill
Experimental: as §1

[5] = system: pigweed (Amaranthus retroflexus); assay: Postemergence herbicidal activity, pigweed; settings: foliar spray, visual after 2 weeks, 0 no injury, 100 complete kill
Experimental: as §1

[6] = system: velvetleaf (Abutilion theophrasti); assay: Postemergence herbicidal activity, velvetleaf; settings: foliar spray, visual after 2 weeks, 0 no injury, 100 complete kill
Experimental: as §1

viola (Viola tricolor) = assay: Postemergence herbicidal activity, viola; settings: foliar spray, visual after 2 weeks, 0 no injury, 100 complete kill
Experimental: as §1

[7] = system: wild buckwheat (Polygonum convolvulus); assay: Postemergence herbicidal activity, wild buckwheat; settings: foliar spray, visual after 2 weeks, 0 no injury, 100 complete kill
Experimental: as §1

[8] = system: blackgrass (Alopecurus myosuroides); assay: Postemergence herbicidal activity, blackgrass; settings: foliar spray, visual after 2 weeks, 0 no injury, 100 complete kill
Experimental: as §1

[9] = system: giant foxtail (Setaria faberi); assay: Postemergence herbicidal activity, giant foxtail; settings: foliar spray, visual after 2 weeks, 0 no injury, 100 complete kill
Experimental: as §1

[10] = system: Rox orange sorghum (Sorghum bicolor); assay: Postemergence herbicidal activity, Rox orange sorghum; settings: foliar spray, visual after 2 weeks, 0 no injury, 100 complete kill
Experimental: as §1

wild oats (Avena fatua) [11] = assay: Postemergence herbicidal activity, wild oats; settings: foliar spray, visual after 2 weeks, 0 no injury, 100 complete kill
Experimental: as §1

[12] = system: cocklebur (Xanthium strumarium); assay: Preemergence herbicidal activity, cocklebur; settings: soil spray, visual after 3 weeks, 0 no injury, 100 complete kill or no germination
Experimental: (§2) The soil matrix was contained in plastic pots with a surface area of 161 square centimeters. When required to ensure good germination and healthy plants, a fungicide treatment and/or other chemical or physical treatment was applied. A weighed amount, determined by the highest rate to be tested, of each test compound was placed in a 20 mL glass vial and was dissolved in 8 mL of a 97:3 v/v (volume/volume) mixture of acetone and dimethyl sulfoxide to obtain concentrated stock solutions. […] The stock solutions obtained were diluted with a 99.9:0.1 mixture of water and Tween® 155 surfactant (ethoxylated sorbitan fatty acid ester) to obtain application solutions of known concentration. The solutions containing the highest concentration to be tested were prepared by diluting 4 mL aliquots of the stock solution with 8.5 mL of the mixture and lower concentrations were prepared by dilution of appropriate smaller portions of the stock solution. A 2.5 mL aliquot of each solution of known concentration was sprayed evenly onto the soil of each seeded pot using a Cornwall 5.0 mL glass syringe fitted with a TeeJet TN-3 hollow cone nozzle to obtain thorough coverage of the soil in each pot. Control pots were sprayed in the same manner with the aqueous mixture. A highest application rate of 4.48 kg/ha is achieved when 50 mg of test compound is employed. The treated pots and control pots were placed in a greenhouse with an approximately 15 hr photoperiod which was maintained at about 23-29° C. during the day and 22-28° C. during the night. Nutrients and water were added on a regular basis and supplemental lighting was provided with overhead metal halide 1000 Watt lamps as necessary. The water was added by top-irrigation. After 3 weeks the condition of the test plants that germinated and grew as compared with that of the untreated plants that germinated and grew was determined visually and scored on a scale of 0 to 100 percent where 0 corresponds to no injury and 100 corresponds to complete kill or no germination.

[13] = system: lambsquarters (Chenopodium album); assay: Preemergence herbicidal activity, lambsquarters; settings: soil spray, visual after 3 weeks, 0 no injury, 100 complete kill or no germination
Experimental: as §2

[14] = system: morningglory (Ipomoea hederacea); assay: Preemergence herbicidal activity, morningglory; settings: soil spray, visual after 3 weeks, 0 no injury, 100 complete kill or no germination
Experimental: as §2

[15] = system: pigweed (Amaranthus retroflexus); assay: Preemergence herbicidal activity, pigweed; settings: soil spray, visual after 3 weeks, 0 no injury, 100 complete kill or no germination
Experimental: as §2

[16] = system: velvetleaf (Abutilion theophrasti); assay: Preemergence herbicidal activity, velvetleaf; settings: soil spray, visual after 3 weeks, 0 no injury, 100 complete kill or no germination
Experimental: as §2

[17] = system: wild poinsettia (Euphorbia heterophylla); assay: Preemergence herbicidal activity, wild poinsettia; settings: soil spray, visual after 3 weeks, 0 no injury, 100 complete kill or no germination
Experimental: as §2

[18] = system: blackgrass (Alopecurus myosuroides); assay: Preemergence herbicidal activity, blackgrass; settings: soil spray, visual after 3 weeks, 0 no injury, 100 complete kill or no germination
Experimental: as §2

[19] = system: barnyardgrass (Echinochloa crus-galli); assay: Preemergence herbicidal activity, barnyardgrass; settings: soil spray, visual after 3 weeks, 0 no injury, 100 complete kill or no germination
Experimental: as §2

[20] = system: crabgrass (Digitaria sanguinalis); assay: Preemergence herbicidal activity, crabgrass; settings: soil spray, visual after 3 weeks, 0 no injury, 100 complete kill or no germination
Experimental: as §2

[21] = system: giant foxtail (Setaria faberi); assay: Preemergence herbicidal activity, giant foxtail; settings: soil spray, visual after 3 weeks, 0 no injury, 100 complete kill or no germination
Experimental: as §2

[22] = system: Rox orange sorghum (Sorghum bicolor); assay: Preemergence herbicidal activity, Rox orange sorghum; settings: soil spray, visual after 3 weeks, 0 no injury, 100 complete kill or no germination
Experimental: as §2

wild oats (Avena fatua) [23] = assay: Preemergence herbicidal activity, wild oats; settings: soil spray, visual after 3 weeks, 0 no injury, 100 complete kill or no germination
Experimental: as §2

SMILES: COc1cc(OC)n2nc(NS(=O)(=O)c3c(OC)csc3C)nc2n1 [Compound 24]
- STEME postemergence injury score 0-100 ([1]; 7.8 ppm): 80%
- XANST postemergence injury score 0-100 ([2]; 7.8 ppm): 90%
- CHEAL postemergence injury score 0-100 ([3]; 7.8 ppm): 85%
- IPOHE postemergence injury score 0-100 ([4]; 7.8 ppm): 80%
- AMARE postemergence injury score 0-100 ([5]; 7.8 ppm): 100%
- ABUTH postemergence injury score 0-100 ([6]; 7.8 ppm): 70%
- VIOTR postemergence injury score 0-100 (viola (Viola tricolor); 7.8 ppm): 70%
- POLCO postemergence injury score 0-100 ([7]; 7.8 ppm): 70%
- ALOMY postemergence injury score 0-100 ([8]; 7.8 ppm): 80%
- SETFA postemergence injury score 0-100 ([9]; 7.8 ppm): 90%
- SORBI postemergence injury score 0-100 ([10]; 7.8 ppm): 100%
- AVEFA postemergence injury score 0-100 (wild oats (Avena fatua) [11]; 7.8 ppm): 70%
- XANST preemergence injury score 0-100 ([12]; 8.8 g/Ha): 70%
- CHEAL preemergence injury score 0-100 ([13]; 8.8 g/Ha): 100%
- IPOHE preemergence injury score 0-100 ([14]; 8.8 g/Ha): 98%
- AMARE preemergence injury score 0-100 ([15]; 8.8 g/Ha): 90%
- ABUTH preemergence injury score 0-100 ([16]; 8.8 g/Ha): 98%
- EPHHL preemergence injury score 0-100 ([17]; 8.8 g/Ha): 80%
- ALOMY preemergence injury score 0-100 ([18]; 8.8 g/Ha): 90%
- ECHCG preemergence injury score 0-100 ([19]; 8.8 g/Ha): 40%
- DIGSA preemergence injury score 0-100 ([20]; 8.8 g/Ha): 98%
- SETFA preemergence injury score 0-100 ([21]; 8.8 g/Ha): 100%
- SORBI preemergence injury score 0-100 ([22]; 8.8 g/Ha): 100%
- AVEFA preemergence injury score 0-100 (wild oats (Avena fatua) [23]; 8.8 g/Ha): 70%

SMILES: COc1csc(C)c1S(=O)(=O)Nc1nc2c(OC)cnc(OC)n2n1 [Compound 23]
- STEME postemergence injury score 0-100 ([1]; 15.6 ppm): 80%
- XANST postemergence injury score 0-100 ([2]; 15.6 ppm): 90%
- CHEAL postemergence injury score 0-100 ([3]; 15.6 ppm): 80%
- IPOHE postemergence injury score 0-100 ([4]; 15.6 ppm): 40%
- AMARE postemergence injury score 0-100 ([5]; 15.6 ppm): 90%
- ABUTH postemergence injury score 0-100 ([6]; 15.6 ppm): 90%
- VIOTR postemergence injury score 0-100 (viola (Viola tricolor); 15.6 ppm): 70%
- POLCO postemergence injury score 0-100 ([7]; 15.6 ppm): 75%
- ALOMY postemergence injury score 0-100 ([8]; 15.6 ppm): 70%
- SETFA postemergence injury score 0-100 ([9]; 15.6 ppm): 90%
- SORBI postemergence injury score 0-100 ([10]; 15.6 ppm): 90%
- AVEFA postemergence injury score 0-100 (wild oats (Avena fatua) [11]; 15.6 ppm): 70%
- XANST preemergence injury score 0-100 ([12]; 4.4 g/Ha): 70%
- CHEAL preemergence injury score 0-100 ([13]; 4.4 g/Ha): 90%
- IPOHE preemergence injury score 0-100 ([14]; 4.4 g/Ha): 80%
- AMARE preemergence injury score 0-100 ([15]; 4.4 g/Ha): 100%
- ABUTH preemergence injury score 0-100 ([16]; 4.4 g/Ha): 90%
- EPHHL preemergence injury score 0-100 ([17]; 4.4 g/Ha): 90%
- ALOMY preemergence injury score 0-100 ([18]; 4.4 g/Ha): 98%
- ECHCG preemergence injury score 0-100 ([19]; 4.4 g/Ha): 80%
- DIGSA preemergence injury score 0-100 ([20]; 4.4 g/Ha): 100%
- SETFA preemergence injury score 0-100 ([21]; 4.4 g/Ha): 98%
- SORBI preemergence injury score 0-100 ([22]; 4.4 g/Ha): 100%
- AVEFA preemergence injury score 0-100 (wild oats (Avena fatua) [23]; 4.4 g/Ha): 90%
